Experimental data as given in patent US7547752B2, “Scalp treatment” (Unilever Home & Personal Care USA division of Conopco, Inc., priority 2002, dated 2009).

System: scalp itch in panellists with self-perceived dandruff
Test: Clinical anti-itch study: CLA lotion or lotion base applied before AD or NAD shampoo wash, investigator-scored itch degree
Type: in vivo, human
Details: lotion applied one hour before hair wash, shampoo 3 times a week, weekly assessment, FIG. 1
Source text: The effect of conjugated linoleic acid, used in conjunction with anti-dandruff (AD) and non anti-dandruff (NAD) shampoo, was clinically assessed using the following protocol.
The conjugated linoleic acid is used as a lotion (composition B). The lotion base comprises Tween™ 20, Carbopol™ 980, Sodium Hydroxide, Natrosol™ 250HHR, EDTA-2Na, glydant plus and water (composition A). The use of the lotion is followed by a shampoo wash with an NAD shampoo (composition C) or an AD shampoo (composition D).
A randomised monadic double blind study design was used based on a total of 240 screened panellists, male and female, with self-perceived dandruff. All 240 panellists used a placebo shampoo (composition C) in their normal hair wash routine for 4 successive weeks.
The panellists were divided into four groups (total number of panellists=240):
Group 1: 60 panellists. All panellists wash their hair with NAD shampoo at home 3 times a week and apply CLA lotion one hour prior to washing their hair.
Group 2: 60 panellists. All panellists wash their hair with NAD shampoo at home 3 times a week and apply lotion base (composition A) one hour prior to washing their hair.
Group 3: 60 panellists. All panellists wash their hair with AD shampoo at home 3 times a week and apply CLA lotion one hour prior to washing their hair.
Group 4: 60 panellists. […]

In the case of Conjugated linoleic acid [CLA], the “degree of itch of the scalp (itch degree, standard scale 0-4)” value is reported as “can increase the degree of scalp itch”.
